Data as given in patent US9708326B2, “Inhibitors of bruton's tyrosine kinase” (Pharmacyclics LLC, priority 2013, dated 2017).

Key:
Assay type in all cases: biochemical
Conditions in all cases: one of the methods outlined in Example 11a, 11b and 11c
EGFR = EGFR (Homo sapiens, UniProt P00533); assay: Inhibition of a panel of kinases: EGFR in vitro kinase assay
BTK = molecular target: T1, BTK (Homo sapiens, UniProt Q06187); assay: Inhibition of a panel of kinases: BTK in vitro kinase assay
T1 construct: N-terminal His6-tagged, recombinant, full-length, human BTK; His6 (N); made in house; host or cells: baculovirus / Sf21 insect cells
Method: (§1) Btk kinase activity is determined using a time-resolved fluorescence resonance energy transfer (TR-FRET) methodology. Measurements are performed in a reaction volume of 50 μL using 96-well assay plates. Kinase enzyme, inhibitor, ATP (at the Km for the kinase), and 1 μM peptide substrate (Biotin-AVLESEEELYSSARQ-NH2) are incubated in a reaction buffer composed of 20 mM Tris, 50 mM NaCl, MgCl2 (5-25 mM depending on the kinase), MnCl2 (0-10 mM), 1 mM DTT, 0.1 mM EDTA, 0.01% bovine serum albumin, 0.005% Tween-20, and 10% DMSO at pH 7.4 for one hour. The reaction is quenched by the addition of 1.2 equivalents of EDTA (relative to divalent cation) in 25 μL of 1× Lance buffer (Perkin-Elmer). Streptavidin-APC (Perkin-Elmer) and Eu-labeled p-Tyr100 antibody (Perkin-Elmer) in 1× Lance buffer are added in a 25 μL volume to give final concentrations of 100 nM and 2.5 nM, respectively, and the mixture is allowed to incubate for one hour. The TR-FRET signal is measured on a multimode plate reader with an excitation wavelength (λEx) of 330 nm and detection wavelengths (λEm) of 615 and 665 nm. Activity is determined by the ratio of the fluorescence at 665 nm to that at 615 nm. For each compound, enzyme activity is measured at various concentrations of compound. Negative control reactions are performed in the absence of inhibitor in replicates of six, and two no-enzyme controls are used to determine baseline fluorescence levels Inhibition constants, Ki(app), ware obtained using the program BatchKi (Kuzmic et al. (2000), Anal. Biochem. 286:45-50). IC50s are obtained according to the equation: IC50={Ki(app)/(1+[ATP]/Km^ATP)}+[E]total/2;
(§2) For all kinases, [ATP]=Km^ATP, [Btk]total=0.5 nM and [Lck]total=6 nM.
(§3) Kinase activity is measured in vitro using electrophoretic mobility shift assay. The kinase reactions are assembled in a total volume of 25 μL in 384 well plates. The reactions comprise: BTK enzyme (1 nM, N-terminal His6-tagged, recombinant, full-length, human BTK purified from baculovirus Sf21 insect cell system), inhibitor, ATP (16 μM, the apparent Km for the kinase), fluorescently labeled peptide substrate (1 μM, FAM-GEEPLYWSFPAKKK-NH2) in a reaction buffer composed of 100 mM HEPES, pH7.5, 5 mM MgCl2 1 mM DTT, 0.1% bovine serum albumin, 0.01% Triton X-100, and 1% DMSO. The reaction is incubated for one hour and is quenched by the addition of 45 μL of termination buffer (100 mM HEPES, pH7.5, 0.01% Triton X-100, 30 mM EDTA). The terminated reactions are analyzed using 12 channel LabChip® 3000 microfluidic detection instrument (Caliper Life Sciences). The enzymatic phosphorylation of the peptide results in a change in net charge, enabling electrophoretic separation of product from substrate peptide. As substrate and product peptides are separated, two peaks of fluorescence are observed. Change in the relative fluorescence intensity of the substrate and product peaks is the parameter measured, reflecting enzyme activity. In the presence of an inhibitor, the ratio between product and substrate is altered: the signal of the product decreases, while the signal of the substrate increases.
(§4) Activity in each sample is determined as the product to sum ratio (PSR): P/(S+P), where P is the peak height of the product peptide and S is the peak height of the substrate peptide. For each compound, enzyme activity is measured at various concentrations (12 concentrations of compound spaced by 3× dilution intervals). Negative control samples (0%-inhibition in the absence of inhibitor) and positive control samples (100%-inhibition, in the presence of 20 mM EDTA) are assembled in replicates of four and are used to calculate %-inhibition values for each inhibitor at each concentration. Percent inhibition (Pinh) is determined using following equation: […]

LCK = LCK (Homo sapiens, UniProt P06239); assay: Inhibition of a panel of kinases: LCK in vitro kinase assay
Method: as §1, §2, §3, §4

T1 sequence (Q06187 whole entry): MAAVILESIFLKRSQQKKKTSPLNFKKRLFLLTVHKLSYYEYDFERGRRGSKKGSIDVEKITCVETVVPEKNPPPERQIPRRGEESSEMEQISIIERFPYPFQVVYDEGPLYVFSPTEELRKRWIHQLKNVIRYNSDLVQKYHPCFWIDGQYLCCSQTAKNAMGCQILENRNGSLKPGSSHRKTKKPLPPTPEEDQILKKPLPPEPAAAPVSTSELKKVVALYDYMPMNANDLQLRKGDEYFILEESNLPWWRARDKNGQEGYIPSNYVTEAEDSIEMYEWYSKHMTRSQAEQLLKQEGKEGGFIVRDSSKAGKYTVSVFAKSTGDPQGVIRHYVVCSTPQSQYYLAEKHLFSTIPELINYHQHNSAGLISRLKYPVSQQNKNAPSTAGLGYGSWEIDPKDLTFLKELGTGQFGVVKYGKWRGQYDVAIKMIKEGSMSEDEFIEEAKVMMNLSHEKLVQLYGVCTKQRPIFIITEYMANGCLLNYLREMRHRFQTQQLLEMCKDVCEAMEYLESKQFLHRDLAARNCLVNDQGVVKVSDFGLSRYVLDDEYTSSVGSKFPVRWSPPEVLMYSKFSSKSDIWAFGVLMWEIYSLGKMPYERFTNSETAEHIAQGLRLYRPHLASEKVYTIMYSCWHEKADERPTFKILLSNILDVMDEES
Chain of LCK (P06239 whole entry, species assumed): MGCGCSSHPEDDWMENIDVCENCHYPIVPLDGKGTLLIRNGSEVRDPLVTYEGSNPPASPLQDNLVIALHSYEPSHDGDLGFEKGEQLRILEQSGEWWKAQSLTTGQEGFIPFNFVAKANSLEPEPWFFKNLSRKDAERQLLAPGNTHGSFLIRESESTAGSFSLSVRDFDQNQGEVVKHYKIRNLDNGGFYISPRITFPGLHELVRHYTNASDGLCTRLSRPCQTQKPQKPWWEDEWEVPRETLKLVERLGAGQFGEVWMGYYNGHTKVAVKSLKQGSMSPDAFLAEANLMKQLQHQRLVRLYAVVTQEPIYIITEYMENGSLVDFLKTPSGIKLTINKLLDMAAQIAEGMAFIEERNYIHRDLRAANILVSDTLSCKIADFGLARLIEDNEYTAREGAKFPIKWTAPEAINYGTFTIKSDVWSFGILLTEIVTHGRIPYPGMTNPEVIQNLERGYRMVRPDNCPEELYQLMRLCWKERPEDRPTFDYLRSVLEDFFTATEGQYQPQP
Chain of EGFR (P00533 25-1210, species assumed): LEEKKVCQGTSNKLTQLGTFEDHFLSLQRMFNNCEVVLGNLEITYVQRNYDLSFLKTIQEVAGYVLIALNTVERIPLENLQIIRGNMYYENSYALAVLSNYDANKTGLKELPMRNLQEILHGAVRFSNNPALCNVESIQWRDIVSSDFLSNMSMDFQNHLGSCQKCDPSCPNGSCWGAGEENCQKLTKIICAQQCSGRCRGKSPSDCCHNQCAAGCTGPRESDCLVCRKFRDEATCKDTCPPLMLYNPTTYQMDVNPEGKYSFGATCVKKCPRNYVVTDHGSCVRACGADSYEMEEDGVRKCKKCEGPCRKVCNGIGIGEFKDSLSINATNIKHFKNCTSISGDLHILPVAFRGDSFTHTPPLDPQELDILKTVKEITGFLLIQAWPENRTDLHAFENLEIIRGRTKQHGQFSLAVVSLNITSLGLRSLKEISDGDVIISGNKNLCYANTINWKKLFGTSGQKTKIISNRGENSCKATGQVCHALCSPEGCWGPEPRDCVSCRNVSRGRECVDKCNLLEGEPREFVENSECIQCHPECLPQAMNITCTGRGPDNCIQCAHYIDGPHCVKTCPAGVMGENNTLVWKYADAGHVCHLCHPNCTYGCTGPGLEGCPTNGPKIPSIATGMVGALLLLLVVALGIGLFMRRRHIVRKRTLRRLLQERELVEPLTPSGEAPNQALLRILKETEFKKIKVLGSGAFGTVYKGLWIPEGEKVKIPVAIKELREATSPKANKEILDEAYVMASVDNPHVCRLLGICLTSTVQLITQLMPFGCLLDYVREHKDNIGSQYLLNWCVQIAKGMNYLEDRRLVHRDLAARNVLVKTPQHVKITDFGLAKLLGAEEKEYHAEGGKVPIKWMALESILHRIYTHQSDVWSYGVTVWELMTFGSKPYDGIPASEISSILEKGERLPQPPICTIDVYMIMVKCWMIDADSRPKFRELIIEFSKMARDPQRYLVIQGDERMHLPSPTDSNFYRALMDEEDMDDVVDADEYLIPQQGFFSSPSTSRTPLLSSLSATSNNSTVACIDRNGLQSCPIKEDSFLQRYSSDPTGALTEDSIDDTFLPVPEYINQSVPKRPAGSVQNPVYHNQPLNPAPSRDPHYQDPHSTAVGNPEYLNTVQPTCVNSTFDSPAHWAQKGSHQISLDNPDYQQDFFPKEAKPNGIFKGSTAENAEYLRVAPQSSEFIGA

`COCCOc1ccc(Nc2ncc3[nH]c(=O)n(-c4cccc(NC(=O)/C=C/CN(C)C)c4)c3n2)cc1` [Compound 6, (E)-4-(dimethylamino)-N-(3-(2-(4-(2-methoxyethoxyl)phenylamino)-8-oxo-7H-purin-9(8H)-yl)phenyl)but-2-enamide] showed an IC50 (EGFR) of 1 to 10 µM and an IC50 (BTK) of under 0.1 µM.

Compound `C=CC(=O)N(C)c1cccc(-n2c(=O)[nH]c3cnc(Nc4ccc(OCCOC)cc4)nc32)c1` [Compound 13, N-(3-(2-(4-(2-methoxyethoxyl)phenylamino)-8-oxo-7H-purin-9(8H)-yl)phenyl)-N-methylacrylamide] has an IC50 (LCK) of 1 to 10 µM, an IC50 (EGFR) of 1 to 10 µM and an IC50 (BTK) of under 0.1 µM.

In the case of `C=CC(=O)Nc1cccc(-n2c(=O)[nH]c3cnc(Nc4ccc(F)cc4)nc32)c1` [Compound 17, N-(3-(2-(4-fluorophenylamino)-8-oxo-7H-purin-9(8H)-yl)phenyl)acrylamide], the IC50 (LCK) is reported as over 10 µM, the IC50 (EGFR) is reported as 0.1 to 1 µM and the IC50 (BTK) is reported as under 0.1 µM.

With `CN(C)C/C=C/C(=O)N1CC(n2c(=O)[nH]c3cnc(Nc4ccc(F)cc4)nc32)C1` [Compound 23, (E)-9-(1-(4-(dimethylamino)but-2-enoyl)azetidin-3-yl)-2-(4-fluorophenylamino)-7H-purin-8(9H)-one] the IC50 (EGFR) was over 10 µM and the IC50 (BTK) was 0.1 to 1 µM.

Work on `CN(C)C/C=C/C(=O)N1CCC[C@@H](n2c(=O)[nH]c3cnc(Nc4ccc(F)cc4)nc32)C1` [Compound 29, (R,E)-9-(1-(4-(dimethylamino)but-2-enoyl)piperidin-3-yl)-2-(4-fluorophenylamino)-7H-purin-8(9H)-one] yielded an IC50 (LCK) of 1 to 10 µM, an IC50 (EGFR) of 1 to 10 µM and an IC50 (BTK) of 0.1 to 1 µM.

`CN(C)C/C=C/C(=O)N1CCC(n2c(=O)[nH]c3cnc(Nc4ccc(F)cc4)nc32)CC1` [Compound 35, (E)-9-(1-(4-(dimethylamino)but-2-enoyl)piperidin-4-yl)-2-(4-fluorophenylamino)-7H-purin-8(9H)-one] gave an IC50 (LCK) of 1 to 10 µM, an IC50 (EGFR) of over 10 µM and an IC50 (BTK) of 0.1 to 1 µM.

Compound `C=CC(=O)Nc1cccc(-n2c(=O)[nH]c3cnc(Nc4ccc(OCCOC)cc4)nc32)c1` [Compound 43, N-(3-(2-(4-(2-methoxyethoxyl)phenylamino)-8-oxo-7H-purin-9(8H)-yl)phenyl)acrylamide] has an IC50 (LCK) of over 10 µM, an IC50 (EGFR) of 1 to 10 µM and an IC50 (BTK) of under 0.1 µM.

In the case of `CN(C)C/C=C/C(=O)Nc1cccc(-n2c(=O)[nH]c3cnc(Nc4ccc(F)cc4)nc32)c1` [Compound 48, (E)-4-(dimethylamino)-N-(3-(2-(4-fluorophenylamino)-8-oxo-7H-purin-9(8H)-yl)phenyl)but-2-enamide], the IC50 (LCK) is reported as 1 to 10 µM, the IC50 (EGFR) is reported as 1 to 10 µM and the IC50 (BTK) is reported as under 0.1 µM.

With `C=CC(=O)Nc1cccc(-c2n[nH]c3cnc(Nc4ccc(OCCOC)cc4)nc23)c1` [Compound 54, N-(3-(5-(4-(2-methoxyethoxyl)phenylamino)-1H-pyrazolo[4,3-d]pyrimidin-3-yl)phenyl)acrylamide] the IC50 (LCK) was 0.1 to 1 µM, the IC50 (EGFR) was 1 to 10 µM and the IC50 (BTK) was under 0.1 µM.

With `C=CC(=O)Nc1cccc(-c2c[nH]c3cnc(Nc4ccc(OCCOC)cc4)nc23)c1` [Compound 60, N-(3-(2-(4-(2-methoxyethoxyl)phenylamino)-5H-pyrrolo[3,2-d]pyrimidin-7-yl)phenyl)acrylamide] the IC50 (LCK) was 1 to 10 µM, the IC50 (EGFR) was 1 to 10 µM and the IC50 (BTK) was 0.1 to 1 µM.
